Assay in all cases: inhibition of tumour cell growth, NCI panel, 48 h
Assay [1] concerns DLD-1 colon.
Assay [2] concerns HCT-116 colon.
Assay [3] deals with KM20L2 colon.
For assay [4], the system named is LOX IMVI melanoma.
The subject of assay [5] is NCI-H522 lung.
In assay [6] the test system is SW-620 colon.
Assay [7] concerns UACC-257 melanoma.
The subject of assay [8] is SR leukemia.
Assay [9] deals with DU-145 prostate.
The subject of assay [10] is HS 578T breast.
In assay [11] the test system is PC-3 prostate.

Structures are written as SMILES.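 Following 48 hours of exposure in 96-well plates, responses at five concentrations were used to interpolate endpoints linearly. GI50 is the concentration that inhibits growth by half. Definition used: TGI = concentration required for complete inhibition of growth.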

`O=C1OC(c2ccccc2)=N/C1=C/N1CCCC1C(=O)O` (centres undefined): the TGI in [1], in [2], in assay [3], in assay [4], in assay [5] and in assay [6] was over 100 µM in each case. The TGI in [7] was over 100 µM.

Consider `CN(CCN(C)C(=O)CCn1ccc(=O)[nH]c1=O)C(=O)CCn1ccc(=O)[nH]c1=O`, for which the TGI in assay [2], in assay [3], in assay [4], in [5], in assay [8] and in [6] was over 100 µM throughout.

For the compound `COc1ccc(N2C(=O)C(N3C(=O)C=CC3=O)C2C=O)cc1` (centres undefined), the TGI in [1], in [2], in [3], in [4], in assay [5] and in [8] was over 100 µM throughout. The TGI in [6] and in assay [7] was over 100 µM each time.

For the compound `CCOC(=O)C[n+]1ccc2c([nH]c3cc(OC)ccc32)c1C`, the TGI in assay [1], in [2], in [3], in assay [4], in [5] and in [6] was over 100 µM in each case. The compound also displayed a TGI in [7] of over 100 µM.

Regarding `CCCCCCc1cn([C@H]2C[C@H](O)[C@@H](CO)O2)c(=O)[nH]c1=O`, the TGI in assay [1], in assay [2], in [3], in [4], in assay [5] and in assay [6] was over 100 µM in each case. This compound came in with a TGI in [7] of over 100 µM.

On to `COc1cc(C2(C)SCCCS2)c(I)c(OC)c1OC`, for which the TGI in assay [1], in [2], in [3], in [4], in assay [5] and in assay [8] was over 100 µM each time. In addition, the TGI in assay [6] and in [7] was over 100 µM throughout.

As for `NC1CCCCC1N.O=S(=O)([O-])CCCN1CCN(CCO)CC1.O=S(=O)([O-])CCCN1CCN(CCO)CC1.[Pt+4]`, the GI50 in assay [1] is 8.44 µM; in assay [2] it was 2 µM; in assay [3], 6.59 µM; in [4] it was 5.97 µM; in assay [5], 2.73 µM; in assay [6], 2.29 µM. Also, in assay [7], the GI50 was 5.77 µM. Moreover, the TGI in assay [1] was over 100 µM; in [2], over 100 µM; in assay [3], over 100 µM; in assay [4], over 100 µM; in [5], 17.9 µM; in assay [6], 21 µM. The TGI in [7] was determined as 24 µM.

On to `CC1(C)N=C(N)N=C(N)N1c1ccc(OCCCOc2ccccc2)c(Cl)c1`, for which the TGI in assay [1] was over 100 µM; in assay [2], 13.5 µM; in [3], 11.3 µM; in assay [4], 13.7 µM; in [5], 8.39 µM; in [6], 13.7 µM. This compound also came in with a TGI in assay [7] of 15.1 µM.

Consider `c1ccc(-c2[nH]c(-c3ccccc3)c(-c3cnccn3)c2-c2cnccn2)cc1`, for which the TGI in [1], in [2], in assay [3], in assay [4], in [5] and in assay [8] was over 100 µM each time. Moreover, the TGI in [6] and in assay [7] was over 100 µM throughout.

Consider `O=C1OC2C=CC1C1(CCOC1=O)C2` (centres undefined), for which the TGI in [1], in [2], in [3], in assay [4], in [5] and in [8] was over 100 µM each time. Besides, the TGI in assay [6] and in assay [7] was over 100 µM throughout.

Regarding `CC(=O)O[C@H]1C(=O)[C@@]2(C)C(C(OC(=O)c3ccccc3)[C@]3(O)CC(OC(=O)C(O)C(NC(=O)c4ccccc4)c4ccc(C)cc4)C(C)=C1C3(C)C)[C@]1(OC(C)=O)CO[C@@H]1C[C@@H]2O` (some centres undefined), the TGI is over 25 µM in assay [1]; 4.75 µM in assay [2]; 0.0981 µM in assay [3]; 6.75 µM in [4]; 0.0396 µM in assay [5]; 0.0256 µM in assay [6]. In addition, the TGI in assay [7] is over 25 µM.

As to `Nc1ccc(-c2nc3ccccc3s2)cc1`, the TGI in [1] is 77.3 µM; in [9], 31.6 µM; in [2], 35.2 µM; in [10], over 84 µM; in assay [3], over 100 µM; in [4], 33 µM. For the same compound, the TGI in [5] was 40.1 µM; in [11] it was 29.2 µM; in [8] it was 62.2 µM; in [6], 41.1 µM; in assay [7] it was 49.7 µM.

Take `CC(=O)Nc1ccc(/C=C(\NC(=O)c2ccccc2)C(=O)NNS(=O)(=O)c2ccc(C)cc2)cc1`: the TGI in [1] was over 100 µM; in [2] it was over 100 µM; in [3], over 100 µM; in assay [4] it was 38.2 µM; in assay [5], over 100 µM; in [8], 37.8 µM. Further, in assay [7], the TGI is over 100 µM.

`C=CCn1c(=O)c2ccccc2[n+]2c(-c3cccc([N+](=O)[O-])c3)csc12`: the TGI in assay [9], in assay [2], in assay [10], in assay [4], in assay [5] and in [11] was over 100 µM throughout. Also, the TGI in [8] was 98.3 µM; in assay [6], over 100 µM; in assay [7], over 100 µM.

`Cc1nnc2sc(-c3ccc([N+](=O)[O-])o3)nn12`: the TGI is 29.8 µM in assay [9]; 20.7 µM in assay [2]; over 100 µM in assay [10]; 16.1 µM in [4]; 14.3 µM in assay [5]; 27.9 µM in [11]. Further, the values for the TGI in [8], in [6] and in assay [7] were 59.6 µM, 23.2 µM and 26.8 µM, respectively.

`COc1cccc2c1[C@]1(O)C(O)CCCC21` (some centres undefined): the TGI in assay [1], in assay [2], in [3], in [4], in assay [5] and in assay [6] was over 100 µM throughout. The compound also registered a TGI in assay [7] of over 100 µM.

In the case of `N#Cc1c(-c2ccc(Cl)cc2)cc(-c2nc3ccccc3[nH]2)nc1N`, the TGI in assay [9] was 20.2 µM; in [2], 22.5 µM; in assay [10], 73.3 µM; in assay [4], 28 µM; in [5], 35.1 µM; in assay [11], 32.6 µM. The TGI is 35.1 µM in [8], 42.6 µM in assay [6] and 18.5 µM in assay [7].

These data come from PubChem BioAssay (NCI).
